Source: patent US20230365576A1, “BRM Targeting Compounds And Associated Methods Of Use” (Prelude Therapeutics Incorporated, priority 2022, published 2023)

How the values were obtained:
SMARCA2 = biological target: T1, SMARCA2 (Homo sapiens, UniProt P51531); assay: SMARCA2 HiBiT degradation assay in HeLa cells; assay type: cell-based; settings: 18 hours; for DC50: read-out: SMARCA2 IC50; for Dmax: HeLa
T1 construct: SMARCA2-HiBiT knock-in Hela monoclonal cell (CS302366); host or cells: HeLa (CRISPR HiBiT knock-in monoclonal line, heterozygous)
T1 sequence (P51531 whole entry): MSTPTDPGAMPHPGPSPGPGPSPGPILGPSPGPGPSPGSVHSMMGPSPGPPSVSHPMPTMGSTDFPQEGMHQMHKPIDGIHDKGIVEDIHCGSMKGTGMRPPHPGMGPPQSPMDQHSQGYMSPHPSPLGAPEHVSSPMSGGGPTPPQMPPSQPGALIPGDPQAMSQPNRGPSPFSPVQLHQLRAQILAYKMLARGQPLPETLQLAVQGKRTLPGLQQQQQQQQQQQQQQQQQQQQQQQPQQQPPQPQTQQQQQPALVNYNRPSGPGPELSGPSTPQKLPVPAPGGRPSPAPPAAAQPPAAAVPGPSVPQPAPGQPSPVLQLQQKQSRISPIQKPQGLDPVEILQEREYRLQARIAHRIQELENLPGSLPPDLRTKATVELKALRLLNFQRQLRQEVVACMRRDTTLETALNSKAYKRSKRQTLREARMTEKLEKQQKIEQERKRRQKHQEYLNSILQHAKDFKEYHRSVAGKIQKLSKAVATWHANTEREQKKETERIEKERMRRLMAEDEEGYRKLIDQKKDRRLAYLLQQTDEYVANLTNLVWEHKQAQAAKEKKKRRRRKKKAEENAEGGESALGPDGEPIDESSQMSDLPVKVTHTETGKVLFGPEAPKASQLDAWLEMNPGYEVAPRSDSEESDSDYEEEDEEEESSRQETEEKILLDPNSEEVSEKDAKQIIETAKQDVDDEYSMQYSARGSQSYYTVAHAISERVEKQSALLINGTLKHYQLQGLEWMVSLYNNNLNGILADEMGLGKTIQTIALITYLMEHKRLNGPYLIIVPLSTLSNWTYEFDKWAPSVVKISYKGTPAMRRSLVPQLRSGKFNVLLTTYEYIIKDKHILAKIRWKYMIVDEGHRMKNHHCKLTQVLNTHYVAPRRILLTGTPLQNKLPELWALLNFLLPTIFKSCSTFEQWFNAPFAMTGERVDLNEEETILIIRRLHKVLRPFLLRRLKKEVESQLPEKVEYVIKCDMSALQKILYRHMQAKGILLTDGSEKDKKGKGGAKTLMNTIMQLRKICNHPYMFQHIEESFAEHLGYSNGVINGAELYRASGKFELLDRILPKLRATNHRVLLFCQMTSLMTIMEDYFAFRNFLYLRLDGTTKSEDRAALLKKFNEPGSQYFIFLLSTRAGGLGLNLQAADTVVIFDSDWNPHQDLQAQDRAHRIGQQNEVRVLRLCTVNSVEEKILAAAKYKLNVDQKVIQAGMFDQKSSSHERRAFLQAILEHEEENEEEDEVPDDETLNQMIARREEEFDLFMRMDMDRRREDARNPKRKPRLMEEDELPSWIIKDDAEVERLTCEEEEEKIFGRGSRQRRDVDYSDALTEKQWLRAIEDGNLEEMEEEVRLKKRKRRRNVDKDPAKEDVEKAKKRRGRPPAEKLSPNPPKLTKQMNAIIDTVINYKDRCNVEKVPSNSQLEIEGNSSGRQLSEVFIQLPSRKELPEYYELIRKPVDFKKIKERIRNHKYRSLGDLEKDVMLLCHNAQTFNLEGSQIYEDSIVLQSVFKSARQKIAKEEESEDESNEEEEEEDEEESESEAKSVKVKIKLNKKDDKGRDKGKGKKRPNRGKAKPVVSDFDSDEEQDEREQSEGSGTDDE
Method in brief: (§1)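 Degradation measured as HiBiT luminescence (Nano-Glo lytic reagent) after 18 h compound exposure at 37° C. Cells were HeLa clones carrying heterozygous HiBiT tags on SMARCA2 or SMARCA4, 2500 per well; compounds at 3-fold serial dilution from 10 μM.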

SMARCA4 = biological target: T2, SMARCA4 (Homo sapiens, UniProt P51532); assay: SMARCA4 HiBiT degradation assay in HeLa cells; assay type: cell-based; settings: 18 hours; for Dmax: HeLa
T2 construct: SMARCA4-HiBiT knock-in Hela monoclonal cell (CS3023226) were purchased from Promega; host or cells: HeLa (CRISPR HiBiT knock-in monoclonal line, heterozygous)
T2 sequence (P51532 whole entry): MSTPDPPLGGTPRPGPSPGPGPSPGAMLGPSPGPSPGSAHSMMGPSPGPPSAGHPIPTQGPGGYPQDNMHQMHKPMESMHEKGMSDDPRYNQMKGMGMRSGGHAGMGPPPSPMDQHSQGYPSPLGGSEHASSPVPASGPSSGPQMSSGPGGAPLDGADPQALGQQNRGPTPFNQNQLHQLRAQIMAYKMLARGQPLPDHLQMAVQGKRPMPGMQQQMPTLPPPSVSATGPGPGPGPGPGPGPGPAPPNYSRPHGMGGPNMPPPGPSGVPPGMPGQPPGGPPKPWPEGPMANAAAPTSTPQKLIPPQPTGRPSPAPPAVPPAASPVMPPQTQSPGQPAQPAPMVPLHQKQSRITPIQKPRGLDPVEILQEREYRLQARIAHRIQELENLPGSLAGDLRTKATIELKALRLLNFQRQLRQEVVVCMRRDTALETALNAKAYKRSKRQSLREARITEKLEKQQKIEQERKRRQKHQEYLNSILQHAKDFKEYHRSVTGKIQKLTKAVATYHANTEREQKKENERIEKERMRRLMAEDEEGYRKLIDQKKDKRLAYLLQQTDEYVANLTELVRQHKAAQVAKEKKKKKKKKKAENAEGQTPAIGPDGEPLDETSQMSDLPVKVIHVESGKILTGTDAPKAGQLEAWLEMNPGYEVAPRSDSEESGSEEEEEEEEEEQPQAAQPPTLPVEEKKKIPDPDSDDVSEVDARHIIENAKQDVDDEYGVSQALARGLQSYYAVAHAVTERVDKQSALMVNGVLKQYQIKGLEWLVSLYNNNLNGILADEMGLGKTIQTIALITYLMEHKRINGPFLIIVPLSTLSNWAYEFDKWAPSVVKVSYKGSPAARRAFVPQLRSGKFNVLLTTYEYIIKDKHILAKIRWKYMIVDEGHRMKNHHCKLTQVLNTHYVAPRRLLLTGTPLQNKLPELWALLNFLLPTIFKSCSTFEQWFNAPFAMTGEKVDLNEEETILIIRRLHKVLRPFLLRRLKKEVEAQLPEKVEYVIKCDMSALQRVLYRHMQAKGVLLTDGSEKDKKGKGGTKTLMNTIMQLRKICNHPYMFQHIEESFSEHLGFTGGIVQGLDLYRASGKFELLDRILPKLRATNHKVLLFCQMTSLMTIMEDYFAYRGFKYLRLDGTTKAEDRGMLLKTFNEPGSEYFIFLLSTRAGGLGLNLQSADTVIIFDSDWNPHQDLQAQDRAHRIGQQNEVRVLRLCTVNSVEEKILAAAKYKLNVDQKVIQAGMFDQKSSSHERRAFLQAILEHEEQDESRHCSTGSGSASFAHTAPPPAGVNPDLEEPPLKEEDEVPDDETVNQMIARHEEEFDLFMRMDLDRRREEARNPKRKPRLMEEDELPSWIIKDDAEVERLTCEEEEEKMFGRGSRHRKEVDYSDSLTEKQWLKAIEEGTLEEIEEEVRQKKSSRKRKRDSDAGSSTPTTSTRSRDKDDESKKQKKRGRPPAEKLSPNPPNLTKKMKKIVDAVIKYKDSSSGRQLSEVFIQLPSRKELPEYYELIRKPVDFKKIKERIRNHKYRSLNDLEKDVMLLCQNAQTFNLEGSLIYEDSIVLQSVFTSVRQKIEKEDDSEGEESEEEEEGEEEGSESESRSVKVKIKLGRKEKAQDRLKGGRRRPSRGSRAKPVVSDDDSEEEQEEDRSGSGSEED
Method in brief: as §1

DC50 (SMARCA2) | Dmax (SMARCA2) | DC50 (SMARCA4) | Dmax (SMARCA4) | Structure (SMILES)
< 100 nM | 50 to 75% | < 100 nM | 50 to 75% | C[C@@H]1CN(CC2CCN(c3ccc4c(c3)C(=O)N([C@H]3CCC(=O)NC3=O)C4)CC2)C[C@@H](C)N1C(=O)N1CCN2c3cc(-c4cccc(F)c4O)nnc3NC[C@]2(C(F)F)C1 [Example 67, (S)-3-(6-(4-(((3R,5R)-4-((R)-6a-(difluoromethyl)-2-(3-fluoro-2-hydroxyphenyl)-6,6a,7,8,9,10-hexahydro-5H-pyrazino[1′,2′:4,5]pyrazino[2,3-c]pyridazine-8-carbonyl)-3,5-dimethylpiperazin-1-yl)methyl)piperidin-1-yl)-1-oxoisoindolin-2-yl)piperidine-2,6-dione]
< 100 nM | > 75% | < 100 nM | 50 to 75% | C[C@@H]1CN(CC2CCN(c3ccc4c(c3)C(=O)N([C@H]3CCC(=O)NC3=O)C4)CC2)[C@@H](C)CN1C(=O)N1CCN2c3cc(-c4cccc(F)c4O)nnc3NC[C@]2(C(F)F)C1 [Example 68, (S)-3-(6-(4-(((2S,5R)-4-((R)-6a-(difluoromethyl)-2-(3-fluoro-2-hydroxyphenyl)-6,6a,7,8,9,10-hexahydro-5H-pyrazino[1′,2′:4,5]pyrazino[2,3-c]pyridazine-8-carbonyl)-2,5-dimethylpiperazin-1-yl)methyl)piperidin-1-yl)-1-oxoisoindolin-2-yl)piperidine-2,6-dione]
< 100 nM | > 75% | > 1000 nM | < 50% | C[C@@H]1CN(CC2CCN(c3ccc4c(c3)C(=O)N(C3CCC(=O)NC3=O)C4)CC2)C[C@H](C)N1C(=O)N1CCN2c3cc(-c4cccc(F)c4O)nnc3NC[C@@]2(C(F)F)C1 (stereo partly drawn) [Example 69, 3-(6-(4-(((3R,5S)-4-((S)-6a-(difluoromethyl)-2-(3-fluoro-2-hydroxyphenyl)-6,6a,7,8,9,10-hexahydro-5H-pyrazino[1′,2′:4,5]pyrazino[2,3-c]pyridazine-8-carbonyl)-3,5-dimethylpiperazin-1-yl)methyl)piperidin-1-yl)-1-oxoisoindolin-2-yl)piperidine-2,6-dione]
< 100 nM | > 75% | < 100 nM | 50 to 75% | C[C@@H]1CN(CC2CCN(c3ccc4c(c3)C(=O)N(C3CCC(=O)NC3=O)C4)CC2)C[C@H](C)N1C(=O)N1CCN2c3cc(-c4cccc(F)c4O)nnc3NC[C@]2(C(F)F)C1 (stereo partly drawn) [Example 70, 3-(6-(4-(((3R,5S)-4-((R)-6a-(difluoromethyl)-2-(3-fluoro-2-hydroxyphenyl)-6,6a,7,8,9,10-hexahydro-5H-pyrazino[1′,2′:4,5]pyrazino[2,3-c]pyridazine-8-carbonyl)-3,5-dimethylpiperazin-1-yl)methyl)piperidin-1-yl)-1-oxoisoindolin-2-yl)piperidine-2,6-dione]
< 100 nM | > 75% | 100 to 1000 nM | < 50% | C[C@@H]1C[C@H](CN2CCN(c3ccc4c(c3)C(=O)N([C@H]3CCC(=O)NC3=O)C4)CC2)C[C@H](C)N1C(=O)N1CCN2c3cc(-c4cccc(F)c4O)nnc3NC[C@@]2(C(F)F)C1 [Example 71, (S)-3-(6-(4-(((2R,4S,6S)-1-((S)-6a-(difluoromethyl)-2-(3-fluoro-2-hydroxyphenyl)-6,6a,7,8,9,10-hexahydro-5H-pyrazino[1′,2′:4,5]pyrazino[2,3-c]pyridazine-8-carbonyl)-2,6-dimethylpiperidin-4-yl)methyl)piperazin-1-yl)-1-oxoisoindolin-2-yl)piperidine-2,6-dione]
< 100 nM | > 75% | < 100 nM | > 75% | C[C@@H]1C[C@H](CN2CCN(c3ccc4c(c3)C(=O)N([C@H]3CCC(=O)NC3=O)C4)CC2)C[C@H](C)N1C(=O)N1CCN2c3cc(-c4cccc(F)c4O)nnc3NC[C@]2(C(F)F)C1 [Example 72, (S)-3-(6-(4-(((2R,4R,6S)-1-((R)-6a-(difluoromethyl)-2-(3-fluoro-2-hydroxyphenyl)-6,6a,7,8,9,10-hexahydro-5H-pyrazino[1′,2′:4,5]pyrazino[2,3-c]pyridazine-8-carbonyl)-2,6-dimethylpiperidin-4-yl)methyl)piperazin-1-yl)-1-oxoisoindolin-2-yl)piperidine-2,6-dione]
< 100 nM | > 75% | 100 to 1000 nM | < 50% | CC1(C)CC(CN2CCN(c3ccc4c(c3)C(=O)N([C@H]3CCC(=O)NC3=O)C4)CC2)CCN1C(=O)N1CCN2c3cc(-c4cccc(F)c4O)nnc3NC[C@@]2(C(F)F)C1 (stereo partly drawn) [Example 73, (3S)-3-(6-(4-((1-((S)-6a-(difluoromethyl)-2-(3-fluoro-2-hydroxyphenyl)-6,6a,7,8,9,10-hexahydro-5H-pyrazino[1′,2′:4,5]pyrazino[2,3-c]pyridazine-8-carbonyl)-2,2-dimethylpiperidin-4-yl)methyl)piperazin-1-yl)-1-oxoisoindolin-2-yl)piperidine-2,6-dione]
< 100 nM | > 75% | 100 to 1000 nM | < 50% | O=C1CCC(N2Cc3ccc(N4CCN(C[C@H]5CC[C@H](C(=O)N6CCN7c8cc(-c9cccc(F)c9O)nnc8NC[C@H]7C6)CC5)CC4)cc3C2=O)C(=O)N1 (stereo partly drawn) [Example 104, 3-(6-(4-(((1S,4r)-4-((S)-2-(3-fluoro-2-hydroxyphenyl)-6,6a,7,8,9,10-hexahydro-5H-pyrazino[1′,2′:4,5]pyrazino[2,3-c]pyridazine-8-carbonyl)cyclohexyl)methyl)piperazin-1-yl)-1-oxoisoindolin-2-yl)piperidine-2,6-dione]
< 100 nM | > 75% | < 100 nM | 50 to 75% | O=C1CC[C@H](N2Cc3ccc(N4CCC(CN5CCC(F)(C(=O)N6CCN7c8cc(-c9cc(F)cc(F)c9O)nnc8NC[C@]7(C(F)F)C6)CC5)CC4)cc3C2=O)C(=O)N1 [Example 105, (S)-3-(6-(4-((4-((R)-2-(3,5-difluoro-2-hydroxyphenyl)-6a-(difluoromethyl)-6,6a,7,8,9,10-hexahydro-5H-pyrazino[1′,2′:4,5]pyrazino[2,3-c]pyridazine-8-carbonyl)-4-fluoropiperidin-1-yl)methyl)piperidin-1-yl)-1-oxoisoindolin-2-yl)piperidine-2,6-dione]
< 100 nM | > 75% | < 100 nM | 50 to 75% | O=C1CC[C@H](N2Cc3ccc(N4CCN(C[C@H]5CC[C@H](CN6CCN7c8cc(-c9cccc(F)c9O)nnc8NC[C@H]7C6)CC5)CC4)cc3C2=O)C(=O)N1 [Example 114, (S)-3-(6-(4-(((1S,4S)-4-(((S)-2-(3-fluoro-2-hydroxyphenyl)-5,6,6a,7,9,10-hexahydro-8H-pyrazino[1′,2′:4,5]pyrazino[2,3-c]pyridazin-8-yl)methyl)cyclohexyl)methyl)piperazin-1-yl)-1-oxoisoindolin-2-yl)piperidine-2,6-dione]
< 100 nM | > 75% | 100 to 1000 nM | < 50% | CC1(C)CN(CC2CCN(c3ccc4c(c3)C(=O)N(C3CCC(=O)NC3=O)C4)CC2)CCC1C(=O)N1CCN2c3cc(-c4cc(F)cc(F)c4O)nnc3NC[C@H]2C1 (stereo partly drawn) [Example 119, 3-(6-(4-((4-((S)-2-(3,5-difluoro-2-hydroxyphenyl)-6,6a,7,8,9,10-hexahydro-5H-pyrazino[1′,2′:4,5]pyrazino[2,3-c]pyridazine-8-carbonyl)-3,3-dimethylpiperidin-1-yl)methyl)piperidin-1-yl)-1-oxoisoindolin-2-yl)piperidine-2,6-dione]
< 100 nM | > 75% | < 100 nM | 50 to 75% | CC1(C)CC(CN2CCN(c3ccc4c(c3)C(=O)N(C3CCC(=O)NC3=O)C4)CC2)CCN1C(=O)N1CCN2c3cc(-c4cccc(F)c4O)nnc3NC[C@H]2C1 (stereo partly drawn) [Example 122, 3-(6-(4-((1-((S)-2-(3-fluoro-2-hydroxyphenyl)-6,6a,7,8,9,10-hexahydro-5H-pyrazino[1′,2′:4,5]pyrazino[2,3-c]pyridazine-8-carbonyl)-2,2-dimethylpiperidin-4-yl)methyl)piperazin-1-yl)-1-oxoisoindolin-2-yl)piperidine-2,6-dione]
